What all share (experiment): biochemical
Common to all, as to set-up: endogenous in cells; host or cells: K562 cell extract; species or system K562 (extract); replicate k of n = 2 (each experiment ID is one independent experiment; two experiment IDs per compound)
Holding throughout (details): read-out: KDapp

Experiment [1] addresses TNK2 (Homo sapiens, UniProt Q07912).
The target in experiment [2] is T1, TEC (Homo sapiens, UniProt P42680).
T1 sequence (P42680 1-631): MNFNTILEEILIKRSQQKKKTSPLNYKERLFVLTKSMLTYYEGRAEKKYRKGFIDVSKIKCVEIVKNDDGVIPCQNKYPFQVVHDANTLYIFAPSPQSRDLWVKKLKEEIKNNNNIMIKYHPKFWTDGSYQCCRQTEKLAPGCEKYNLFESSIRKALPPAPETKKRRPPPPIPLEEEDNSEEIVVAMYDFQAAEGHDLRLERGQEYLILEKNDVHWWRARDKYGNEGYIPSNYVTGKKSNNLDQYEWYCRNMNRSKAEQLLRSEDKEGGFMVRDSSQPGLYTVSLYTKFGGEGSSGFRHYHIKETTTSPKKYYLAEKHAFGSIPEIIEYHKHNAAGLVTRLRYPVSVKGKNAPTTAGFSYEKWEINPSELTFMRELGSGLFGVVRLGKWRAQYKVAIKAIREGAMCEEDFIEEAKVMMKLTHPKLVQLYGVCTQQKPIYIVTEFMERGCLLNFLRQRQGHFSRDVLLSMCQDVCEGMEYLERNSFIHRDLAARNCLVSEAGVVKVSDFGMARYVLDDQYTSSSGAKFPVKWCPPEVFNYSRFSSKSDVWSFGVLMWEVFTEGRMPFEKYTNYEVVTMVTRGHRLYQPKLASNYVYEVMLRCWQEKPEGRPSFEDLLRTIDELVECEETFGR

In experiment [3] the target is T2, PDPK1 (Homo sapiens, UniProt O15530).
T2 sequence (O15530 1-556): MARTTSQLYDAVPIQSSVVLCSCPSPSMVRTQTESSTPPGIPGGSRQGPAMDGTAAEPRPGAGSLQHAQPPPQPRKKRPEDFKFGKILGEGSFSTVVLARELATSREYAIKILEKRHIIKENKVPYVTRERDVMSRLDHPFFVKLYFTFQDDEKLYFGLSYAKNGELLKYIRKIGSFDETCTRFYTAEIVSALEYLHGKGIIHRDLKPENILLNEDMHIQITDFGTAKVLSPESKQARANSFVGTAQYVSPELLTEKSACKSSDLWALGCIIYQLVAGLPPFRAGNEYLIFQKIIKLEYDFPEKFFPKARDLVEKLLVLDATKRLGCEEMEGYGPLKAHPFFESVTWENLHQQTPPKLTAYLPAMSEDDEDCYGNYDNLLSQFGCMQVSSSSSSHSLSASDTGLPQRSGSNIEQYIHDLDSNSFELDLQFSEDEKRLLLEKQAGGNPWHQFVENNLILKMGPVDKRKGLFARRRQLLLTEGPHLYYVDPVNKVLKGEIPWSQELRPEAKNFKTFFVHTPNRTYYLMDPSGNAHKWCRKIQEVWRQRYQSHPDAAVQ

For experiment [4], the target named is NTRK1 (Homo sapiens, UniProt P04629).
Experiment [5] addresses BTK (Homo sapiens, UniProt Q06187).
Experiment [6] concerns the target PIK3R4 (Homo sapiens, UniProt Q99570).
The target of experiment [7] is T3, NLK (Homo sapiens, UniProt Q9UBE8).
T3 sequence (Q9UBE8 1-527): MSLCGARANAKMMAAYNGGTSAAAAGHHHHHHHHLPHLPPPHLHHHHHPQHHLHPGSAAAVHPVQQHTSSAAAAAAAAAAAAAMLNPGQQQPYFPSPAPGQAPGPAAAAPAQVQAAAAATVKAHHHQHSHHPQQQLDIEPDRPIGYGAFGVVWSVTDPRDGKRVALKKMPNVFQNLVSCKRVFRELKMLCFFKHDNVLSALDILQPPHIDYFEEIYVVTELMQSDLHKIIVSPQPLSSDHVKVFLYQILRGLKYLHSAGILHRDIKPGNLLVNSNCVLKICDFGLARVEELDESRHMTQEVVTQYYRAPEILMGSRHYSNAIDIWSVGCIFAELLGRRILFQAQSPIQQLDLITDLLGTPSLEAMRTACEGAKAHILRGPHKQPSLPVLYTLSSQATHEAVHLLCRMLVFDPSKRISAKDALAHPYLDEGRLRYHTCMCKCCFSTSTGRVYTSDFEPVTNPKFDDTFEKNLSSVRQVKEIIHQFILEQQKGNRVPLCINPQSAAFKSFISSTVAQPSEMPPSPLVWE

For experiment [8], the target named is CDK10 (Homo sapiens, UniProt Q15131).

Among the data in PMC4774911, “Biochemical Screening of Five Protein Kinases from Plasmodium falciparum against 14,000 Cell-Active Compounds” (PLoS ONE, 2016) are Kd values, retold here.

Molecules are shown by their SMILES. “And” between values parts separate entries of the source, which are not always exact repeats. Equal entries are not always repeated.

Chain of BTK (Q06187 whole entry): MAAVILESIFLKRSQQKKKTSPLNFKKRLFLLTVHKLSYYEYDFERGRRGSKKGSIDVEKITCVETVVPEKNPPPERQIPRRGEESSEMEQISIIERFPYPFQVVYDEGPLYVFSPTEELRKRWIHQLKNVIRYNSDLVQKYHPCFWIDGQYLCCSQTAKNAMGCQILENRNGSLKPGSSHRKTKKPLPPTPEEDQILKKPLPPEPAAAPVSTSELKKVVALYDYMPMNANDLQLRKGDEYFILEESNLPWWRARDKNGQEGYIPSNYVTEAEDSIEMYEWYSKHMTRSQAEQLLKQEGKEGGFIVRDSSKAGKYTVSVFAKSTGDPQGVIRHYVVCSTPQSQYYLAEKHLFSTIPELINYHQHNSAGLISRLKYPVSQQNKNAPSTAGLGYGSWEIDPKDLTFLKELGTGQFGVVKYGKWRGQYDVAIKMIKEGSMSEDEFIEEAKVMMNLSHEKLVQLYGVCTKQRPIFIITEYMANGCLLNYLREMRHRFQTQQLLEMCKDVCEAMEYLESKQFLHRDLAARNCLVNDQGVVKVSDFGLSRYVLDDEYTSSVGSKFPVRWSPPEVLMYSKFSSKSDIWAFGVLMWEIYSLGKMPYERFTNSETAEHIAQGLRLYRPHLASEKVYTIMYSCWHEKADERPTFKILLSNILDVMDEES
Chain of NTRK1 (P04629 whole entry): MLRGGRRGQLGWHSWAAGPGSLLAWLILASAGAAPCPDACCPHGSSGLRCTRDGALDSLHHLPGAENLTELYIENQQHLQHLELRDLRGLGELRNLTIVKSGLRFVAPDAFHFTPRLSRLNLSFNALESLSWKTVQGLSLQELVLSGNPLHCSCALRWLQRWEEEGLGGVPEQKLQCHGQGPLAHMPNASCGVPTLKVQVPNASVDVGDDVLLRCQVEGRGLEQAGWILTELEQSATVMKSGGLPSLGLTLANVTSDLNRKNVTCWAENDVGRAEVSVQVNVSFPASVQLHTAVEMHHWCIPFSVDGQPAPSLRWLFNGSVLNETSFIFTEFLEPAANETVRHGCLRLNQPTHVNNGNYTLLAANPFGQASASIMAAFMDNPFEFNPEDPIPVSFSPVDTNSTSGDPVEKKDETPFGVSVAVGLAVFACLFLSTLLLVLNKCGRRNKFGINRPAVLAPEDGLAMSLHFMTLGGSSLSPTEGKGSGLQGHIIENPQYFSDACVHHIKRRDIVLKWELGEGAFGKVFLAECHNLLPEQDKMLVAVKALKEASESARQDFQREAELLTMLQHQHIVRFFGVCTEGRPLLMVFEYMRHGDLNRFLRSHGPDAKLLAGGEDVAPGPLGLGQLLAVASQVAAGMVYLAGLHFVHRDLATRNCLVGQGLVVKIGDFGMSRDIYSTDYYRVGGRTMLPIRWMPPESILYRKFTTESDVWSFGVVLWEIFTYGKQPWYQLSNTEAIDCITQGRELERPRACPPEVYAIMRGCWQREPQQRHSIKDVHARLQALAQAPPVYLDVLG
Chain of PIK3R4 (Q99570 whole entry): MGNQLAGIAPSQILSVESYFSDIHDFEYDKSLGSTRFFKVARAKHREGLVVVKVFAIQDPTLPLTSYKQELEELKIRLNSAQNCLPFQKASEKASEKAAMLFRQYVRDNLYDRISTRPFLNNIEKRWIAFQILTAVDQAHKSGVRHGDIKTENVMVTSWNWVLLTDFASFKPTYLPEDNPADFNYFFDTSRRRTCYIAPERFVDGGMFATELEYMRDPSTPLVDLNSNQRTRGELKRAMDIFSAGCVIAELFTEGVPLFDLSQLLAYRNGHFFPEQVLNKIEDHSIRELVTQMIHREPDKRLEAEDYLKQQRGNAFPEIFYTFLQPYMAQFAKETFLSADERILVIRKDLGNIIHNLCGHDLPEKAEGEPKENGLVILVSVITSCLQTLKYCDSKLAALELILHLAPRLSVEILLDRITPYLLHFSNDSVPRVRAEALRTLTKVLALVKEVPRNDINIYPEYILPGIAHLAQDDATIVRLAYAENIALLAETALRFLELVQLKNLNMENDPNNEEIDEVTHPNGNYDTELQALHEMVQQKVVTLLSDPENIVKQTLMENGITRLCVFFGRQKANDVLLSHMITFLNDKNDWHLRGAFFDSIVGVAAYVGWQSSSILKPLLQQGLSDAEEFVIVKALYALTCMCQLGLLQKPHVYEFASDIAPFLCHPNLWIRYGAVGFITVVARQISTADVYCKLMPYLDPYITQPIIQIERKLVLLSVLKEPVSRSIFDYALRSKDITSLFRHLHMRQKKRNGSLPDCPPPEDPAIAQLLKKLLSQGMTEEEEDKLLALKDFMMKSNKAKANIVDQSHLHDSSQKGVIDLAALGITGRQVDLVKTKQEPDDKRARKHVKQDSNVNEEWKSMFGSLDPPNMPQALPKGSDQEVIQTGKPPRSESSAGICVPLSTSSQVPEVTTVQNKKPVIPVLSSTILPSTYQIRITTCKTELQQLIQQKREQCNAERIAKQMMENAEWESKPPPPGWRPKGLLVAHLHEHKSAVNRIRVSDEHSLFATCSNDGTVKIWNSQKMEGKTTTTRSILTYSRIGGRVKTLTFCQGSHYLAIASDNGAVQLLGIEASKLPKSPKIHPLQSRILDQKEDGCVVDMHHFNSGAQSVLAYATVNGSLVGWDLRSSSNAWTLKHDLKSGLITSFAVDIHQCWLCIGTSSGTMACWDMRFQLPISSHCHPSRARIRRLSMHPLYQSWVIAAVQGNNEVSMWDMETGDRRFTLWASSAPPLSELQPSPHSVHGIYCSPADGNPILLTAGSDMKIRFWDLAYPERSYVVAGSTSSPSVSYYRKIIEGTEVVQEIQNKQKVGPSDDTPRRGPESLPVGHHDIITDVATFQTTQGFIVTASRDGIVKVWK
Chain of CDK10 (Q15131 whole entry): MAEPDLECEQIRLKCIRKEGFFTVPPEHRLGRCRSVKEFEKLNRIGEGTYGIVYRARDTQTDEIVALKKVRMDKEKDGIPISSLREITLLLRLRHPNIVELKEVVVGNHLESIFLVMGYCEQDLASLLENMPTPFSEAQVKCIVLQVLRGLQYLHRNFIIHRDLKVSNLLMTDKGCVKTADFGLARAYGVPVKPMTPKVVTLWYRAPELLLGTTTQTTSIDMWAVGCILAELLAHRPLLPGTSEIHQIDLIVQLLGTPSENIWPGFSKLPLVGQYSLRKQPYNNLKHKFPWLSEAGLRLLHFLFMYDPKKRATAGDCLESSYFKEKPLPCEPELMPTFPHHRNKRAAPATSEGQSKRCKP
Chain of TNK2 (Q07912 whole entry): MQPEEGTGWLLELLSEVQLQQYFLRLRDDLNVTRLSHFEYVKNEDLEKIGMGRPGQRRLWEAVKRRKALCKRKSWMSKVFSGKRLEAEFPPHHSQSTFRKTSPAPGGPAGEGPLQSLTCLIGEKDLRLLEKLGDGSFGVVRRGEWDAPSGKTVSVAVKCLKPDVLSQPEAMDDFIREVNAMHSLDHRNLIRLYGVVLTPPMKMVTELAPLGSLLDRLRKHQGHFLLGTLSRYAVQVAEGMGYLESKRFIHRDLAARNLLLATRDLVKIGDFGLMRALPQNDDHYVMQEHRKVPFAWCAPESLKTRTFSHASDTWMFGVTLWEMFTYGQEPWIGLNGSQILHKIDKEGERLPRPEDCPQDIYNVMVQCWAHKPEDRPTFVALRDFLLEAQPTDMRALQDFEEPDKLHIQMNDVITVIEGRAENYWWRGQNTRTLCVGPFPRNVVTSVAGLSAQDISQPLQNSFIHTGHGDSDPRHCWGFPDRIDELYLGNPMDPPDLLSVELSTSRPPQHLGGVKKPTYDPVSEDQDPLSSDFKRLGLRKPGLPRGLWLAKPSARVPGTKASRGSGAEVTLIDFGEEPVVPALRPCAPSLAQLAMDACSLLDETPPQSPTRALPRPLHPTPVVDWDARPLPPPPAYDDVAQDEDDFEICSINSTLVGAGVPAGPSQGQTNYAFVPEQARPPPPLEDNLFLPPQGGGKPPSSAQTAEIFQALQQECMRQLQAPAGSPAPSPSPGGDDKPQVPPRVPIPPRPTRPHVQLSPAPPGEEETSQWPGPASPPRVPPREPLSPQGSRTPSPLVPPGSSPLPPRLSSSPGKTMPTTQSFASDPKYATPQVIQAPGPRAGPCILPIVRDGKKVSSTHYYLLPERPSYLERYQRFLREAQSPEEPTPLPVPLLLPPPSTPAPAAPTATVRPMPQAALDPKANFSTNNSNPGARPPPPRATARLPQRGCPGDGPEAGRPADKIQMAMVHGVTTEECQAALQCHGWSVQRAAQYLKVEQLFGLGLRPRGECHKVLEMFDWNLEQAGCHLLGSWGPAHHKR

For the molecule `CN1CCN(c2ccc(Nc3ncc(C#N)c(Nc4ccccc4C(N)=O)n3)cc2)CC1.Cl` [TCMDC-134116], the Kd in experiment [1] is 73.5 nM; in experiment [2], 137 nM and 146 nM; in experiment [3] it was 605 nM and 503 nM; in experiment [4] it was 1030 nM and 701 nM; in experiment [5], 207 nM and 231 nM; in experiment [6], 1840 nM. In addition, the Kd in experiment [7] was 950 nM and 890 nM.
In the case of `CN(C)CC(O)COc1ccc(Nc2ncc([N+](=O)[O-])c(Nc3ccccc3O)n2)cc1.O=C(O)C(F)(F)F` (centres unmarked) [TCMDC-141399], the Kd in experiment [8] is 630 nM.
